# In US20170318812A1, “Plant and Crop Growth Regulating/Biostimulant Formulations and Methods of Use” (Arysta Lifescience North America, LLC, priority 2014, published 2017):
# Several values for one entry are separate records, joined by “and”; a condition that tells them apart may be missing. Equal entries are not always repeated.
# Assays:
# [1] = tested on: GOSHI Gossypium hirsutum (American upland cotton); experiment: Ipfencarbazone biostimulant effect, early post emergence foliar application, greenhouse pots, plant height: cotton; type: in vivo; conditions: for Plant HEIGHT, Mean / Plant HEIGHT, single plots: Cotton 975WS; for HEIGHT, percent of untreated check (APoC) / HEIGHT, treatment mean: GOSHI 975WS
# From the text: (§1) The original objective of this Example was to evaluate the herbicidal effect of ipfencarbazone when applied as a post emergent treatment to a range of selected crops and weeds. Unexpectedly, crop plant growth stimulation was observed. The actual species of weeds and crops are listed in the summary data tabulated below and in FIGS. 1-13. By convention each plant species has a Bayer code (5-letter name) with the scientific name for the plant referenced in FIGS. 1-13. In each Figure, each tray contains the same configuration of weeds and/or crops. In each Figure there is one replication of each treatment (six treatments in total). The top three photographs in each Figure show the Bayer Codes and bottom three photographs are aligned with the top three facilitating viewing of the same plant species. Throughout the Examples various abbreviations as conventional shorthand notation and will be appreciated by those skilled in the art. Some exemplary abbreviations include, “CV”=Co-efficient of Variation,” “LSD”=Least Significant Difference” (G/L (gram per L) AND GA/L (gram of active ingredient per L); “SC”=suspension concentrate formulation. The diluent in all treatments was water. By convention factors that are identical in all treatments (e.g. diluent and surfactant) are not listed in each treatment.
# (§2) Methods: The indicated size pots (see Tables below) are filled with a specific soil, the soil properties being indicated below. The referenced crops and weeds are planted by hand in each pot. […] The experiments include six treatments each replicated three times on each crop/weed species. At a specific time after emergence each crop and weed species was treated with ipfencarbazone plus a non-ionic surfactant (NIS). In the present Example, the surfactant employed was ENERGIC™ (non-ionic surfactant). The application timing is indicated in each of the Tables (1 or 2 leaf stage) below. Ipfencarbazone plus surfactant was diluted in water and applied at a rate equivalent to about 250 L/ha. Ipfencarbazone was applied using a track sprayer. After treatment, the pots were randomized in a greenhouse. At each assessment (indicated by “days after treatment” or DAT) the height of each plant was measured. The letters next to each mean indicate the level of statistical significance.
# (§3) Replications: 3, Untreated treatments: 1, Design: Randomized Complete Block (RCB), Treatment units: Treated ‘Plot’ experimental unit size, Dry Form. Unit: %, Treated ‘Plot’ experimental unit size Width: 1 meter, Treated ‘Plot’ experimental unit size Length: 1.4 meters, Application volume: 250 L/ha, Mix size: 0.15 liters, […]
# [2] = tested on: SORVU Sorghum bicolor (Grain sorghum); experiment: Ipfencarbazone biostimulant effect, early post emergence foliar application, greenhouse pots, plant height: sorghum; type: in vivo; conditions: for Plant HEIGHT, Mean / Plant HEIGHT, single plots: Grain sorghum DKB 590, 15 DA-A
# From the text: as §1, §2, §3
# [3] = 15 DA-A, 62.5 g ai/ha + Energic NIS 0.2 % v/v
# [4] = 15 DA-A, 125 g ai/ha + Energic NIS 0.2 % v/v
# [5] = 15 DA-A, 250 g ai/ha + Energic NIS 0.2 % v/v
# [6] = 15 DA-A, 500 g ai/ha + Energic NIS 0.2 % v/v
# [7] = 28 DA-A, 62.5 g ai/ha + Energic NIS 0.2 % v/v
# [8] = 28 DA-A, 125 g ai/ha + Energic NIS 0.2 % v/v
# [9] = 62.5 g ai/ha + Energic NIS 0.2 % v/v
# [10] = 125 g ai/ha + Energic NIS 0.2 % v/v
# [11] = 250 g ai/ha + Energic NIS 0.2 % v/v
# [12] = 500 g ai/ha + Energic NIS 0.2 % v/v
# [13] = SORVU DKB 590, 62.5 g ai/ha, 15 DA-A
# [14] = SORVU DKB 590, 62.5 g ai/ha, 28 DA-A
smiles,measurement,setting,value
"CC(C)N(C(=O)n1cnn(-c2ccc(Cl)cc2Cl)c1=O)c1ccc(F)cc1F [ARY-0572-001, ipfencarbazone]","Plant HEIGHT, Mean",[1]; [3],16.1 cm
same,"Plant HEIGHT, single plots",[1]; [3],19.2 cm and 13.7 cm and 15.3 cm
same,"Plant HEIGHT, Mean",[1]; [4],11.9 cm
same,"Plant HEIGHT, single plots",[1]; [4],9.7 cm and 12.0 cm and 14.0 cm
same,"Plant HEIGHT, Mean",[1]; [5],9.5 cm
same,"Plant HEIGHT, single plots",[1]; [5],9.3 cm and 9.2 cm and 10.0 cm
same,"Plant HEIGHT, Mean",[1]; [6],7.7 cm
same,"Plant HEIGHT, single plots",[1]; [6],9.2 cm and 6.3 cm and 7.7 cm
same,"Plant HEIGHT, Mean","[1]; 15 DA-A, 1000 g ai/ha + Energic NIS 0.2 % v/v",6.9 cm
same,"Plant HEIGHT, Mean",[1]; [7],24.9 cm
same,"Plant HEIGHT, single plots",[1]; [7],26.0 cm and 27.7 cm and 21.0 cm
same,"Plant HEIGHT, Mean",[1]; [8],17.7 cm
same,"Plant HEIGHT, single plots",[1]; [8],19.0 cm and 17.3 cm and 16.7 cm
same,"Plant HEIGHT, Mean","[1]; 28 DA-A, 250 g ai/ha + Energic NIS 0.2 % v/v",15.8 cm
same,"Plant HEIGHT, Mean","[1]; 28 DA-A, 500 g ai/ha + Energic NIS 0.2 % v/v",13.2 cm
same,"Plant HEIGHT, Mean","[1]; 28 DA-A, 1000 g ai/ha + Energic NIS 0.2 % v/v",8.9 cm
same,"HEIGHT, percent of untreated check (APoC)","[1]; 62.5 g ai/ha, 15 DA-A",(137.6%)
same,"HEIGHT, treatment mean","[1]; 62.5 g ai/ha, 15 DA-A",16.1 a cm
same,"HEIGHT, percent of untreated check (APoC)","[1]; 62.5 g ai/ha, 28 DA-A",(154.5%)
same,"HEIGHT, treatment mean","[1]; 62.5 g ai/ha, 28 DA-A",24.9 a cm
same,"HEIGHT, percent of untreated check (APoC)","[1]; 125 g ai/ha, 15 DA-A",(101.9%)
same,"HEIGHT, treatment mean","[1]; 125 g ai/ha, 15 DA-A",11.9 b cm
same,"HEIGHT, percent of untreated check (APoC)","[1]; 125 g ai/ha, 28 DA-A",(109.7%)
same,"HEIGHT, treatment mean","[1]; 125 g ai/ha, 28 DA-A",17.7 ab cm
same,"HEIGHT, percent of untreated check (APoC)","[1]; 250 g ai/ha, 15 DA-A",(81.4%)
same,"HEIGHT, treatment mean","[1]; 250 g ai/ha, 15 DA-A",9.5 bc cm
same,"HEIGHT, percent of untreated check (APoC)","[1]; 250 g ai/ha, 28 DA-A",(97.9%)
same,"HEIGHT, treatment mean","[1]; 250 g ai/ha, 28 DA-A",15.8 bc cm
same,"HEIGHT, percent of untreated check (APoC)","[1]; 500 g ai/ha, 15 DA-A",(66.2%)
same,"HEIGHT, treatment mean","[1]; 500 g ai/ha, 15 DA-A",7.7 c cm
same,"HEIGHT, percent of untreated check (APoC)","[1]; 500 g ai/ha, 28 DA-A",(82.1%)
same,"HEIGHT, treatment mean","[1]; 500 g ai/ha, 28 DA-A",13.2 bc cm
same,"HEIGHT, percent of untreated check (APoC)","[1]; 1000 g ai/ha, 15 DA-A",(59.5%)
same,"HEIGHT, treatment mean","[1]; 1000 g ai/ha, 15 DA-A",6.9 c cm
same,"HEIGHT, percent of untreated check (APoC)","[1]; 1000 g ai/ha, 28 DA-A",(55.2%)
same,"HEIGHT, treatment mean","[1]; 1000 g ai/ha, 28 DA-A",8.9 c cm
same,"Plant HEIGHT, Mean",[2]; [9],59.9 cm
same,"Plant HEIGHT, single plots",[2]; [9],55.3 cm and 68.0 cm and 56.3 cm
same,"Plant HEIGHT, Mean",[2]; [10],59.3 cm
same,"Plant HEIGHT, single plots",[2]; [10],68.7 cm and 55.0 cm and 54.3 cm
same,"Plant HEIGHT, Mean",[2]; [11],61.3 cm
same,"Plant HEIGHT, single plots",[2]; [11],58.0 cm and 65.0 cm and 61.0 cm
same,"Plant HEIGHT, Mean",[2]; [12],60.4 cm
same,"Plant HEIGHT, single plots",[2]; [12],56.0 cm and 66.3 cm and 58.8 cm
same,"Plant HEIGHT, Mean",[2]; 1000 g ai/ha + Energic NIS 0.2 % v/v,22.7 cm
same,"HEIGHT, percent of untreated check (APoC)",[2]; [13],(246.1%)
same,"HEIGHT, treatment mean",[2]; [13],59.9 a cm
same,"HEIGHT, percent of untreated check (APoC)",[2]; [14],(296.5%)
same,"HEIGHT, treatment mean",[2]; [14],85.0 a cm and 85.0 cm
same,"HEIGHT, single plots (replicates)","[2]; SORVU DKB 590, 62.5 g ai/ha, 28 DA-A, plots 102, 205, 302",73.0 cm and 110.7 cm and 71.3 cm
